# Source: US6764855B2, “Fluorescent hplc assay for 20-hete and other p-450 metabolites of arachidonic acid” (MCW Research Foundation, priority 2000, dated 2004)
# How the values were obtained:
# P-4504A enzyme = P-4504A enzyme activity (20-HETE production) in renal cortical microsomes from treated rats; type: in vivo
# Description: SHR and normotensive Sprague-Dawley rats were placed in special metabolic cages (model 650-00350; Nalgene, Rochester, N.Y.) that efficiently separated urine from food and feces and were allowed to equilibrate for 5 days. After 5 days, the food was withdrawn from the rat to prevent contamination of the urine sample and a 24-h control urine sample was collected on dry ice. After the control sample was collected, food was returned to the rats, and after a 2-day recovery period, the rats received an intraperitoneal injection of ABT (50 mg/kg) followed by a second (50 mg/kg) injection 12 h later. Two hours after administration of the first dose of ABT, food was withdrawn and a 24-h experimental urine sample was collected on dry ice. After the urine was collected, the rats were killed with pentobarbital sodium (100 mg/kg ip), and the kidneys were collected. The renal cortex was separated from the renal medulla, frozen in liquid nitrogen, and stored overnight for measurement of the renal metabolism of AA. Briefly, the renal cortex was homogenized in a 10 mM potassium phosphate buffer (pH 7.7) containing 250 mM sucrose, 1 mM EDTA, and 10 mM magnesium chloride, and microsomes were prepared by differential centrifugation. […] The radioactive products were monitored using a radioactive flow detector (model 120; Radiomatic Instrument, Tampa, Fla.).
# [1] = test system: urinary excretion of 20-HETE; test: Effect of an irreversible P-450 inhibitor on the urinary excretion of 20-HETE; type: in vivo, rats; details: ABT 50 mg/kg ip, second 50 mg/kg injection 12 h later, 24-h urine vs control
# Protocol: To label the fatty acids, we resuspended samples, which were extracted and dried under argon, in 20 μl of acetonitrile containing 36.4 mM 2-(2,3-naphthalimino)ethyl trifluoromethanesulfonate. N,N-diisopropylethylamine (10 μl) was added to catalyze the reaction. The sample was reacted for 30 min at room temperature. The reactions were dried down under argon, resuspended in 1 ml of 20% acetonitrile:water, and applied to a Sep-Pak Vac column. The column was washed with 6 ml of 50% acetonitrile:water solution to remove unreacted dye and eluted with 500 μl of ethyl acetate. The eluent was dried under argon, and the samples were resuspended in 100 μl of the IPLC mobile phase (methanol:water:acetic acid, 82:18:0.1 vol/vol/vol). […] Fluorescence intensity was continuously monitored using a fluorescence detector (model L-7480; Hitachi, Naperville, Ill.) at a medium gain sensitivity. The amount of 20-HETE in the sample was determined by comparing the area of the 20-HETE peak to that of an internal standard. […]
# SHR and normotensive Sprague-Dawley rats were placed in special metabolic cages (model 650-00350; Nalgene, Rochester, N.Y.) that efficiently separated urine from food and feces and were allowed to equilibrate for 5 days. […] The radioactive products were monitored using a radioactive flow detector (model 120; Radiomatic Instrument, Tampa, Fla.).
smiles,measurement,setting,value
"Nn1nnc2ccccc21 [ABT, 1-aminobenzotriazole]",20-HETE production by renal cortical microsomes,"P-4504A enzyme; microsomes from kidneys of ABT-treated SHR (n=4), vehicle 459±192",12±4 pmol●min^−1●mg^−1
same,20-HETE production by renal cortical microsomes,"P-4504A enzyme; microsomes from kidneys of ABT-treated Sprague-Dawley rats (n=5), vehicle 324±25",25±3 pmol●min^−1●mg^−1
same,fall in urinary excretion of 20-HETE after administration of ABT,[1]; SHR (n=4),65±10%
same,fall in urinary excretion of 20-HETE after administration of ABT,[1]; Sprague-Dawley rats (n=5),74±9%
